Results published in patent publication US20040171086A1, “Selective modulation of TLR-mediated biological activity” (3M Innovative Properties Company, priority 2003, published 2004).

Experiments:
Format in all cases: cell-based, human
Myeloid DCs = test: IL-12 production by myeloid DCs (IGEN analysis)
Method: (§1) The blood myeloid dendritic cells (mDC) were isolated from the BDCA-4 negative cell fraction using the Miltenyi Microbead technology system (Miltenyi BioTec, Auburn, Calif.). Cells were resuspended in 4° C. separation buffer (PBS- pH 7.2, 0.5% BSA-2.5 gm, 2 mM 0.5M EDTA) at 20 μl per 10^7 total cells. […] The cells were resuspended in 500 μL of separation buffer per 10^8 total cells. […] BDCA-1^+mDCs were enriched using the Miltenyi Automacs POSSELD software. The cells retained in the column were eluted into a sterile 50 mL polystyrene conical tube.
(§2) Compounds, reconstituted in dimethyl sulfoxide (DMSO, sterile cell culture grade, Sigma Chemical Co., St. Louis, Mo.) were added at 2× their final concentration to a 96-well flat-bottom sterile tissue culture polystyrene plate (Benton Dickinson Labware, Franklin Lakes, N.J.). Cells were then added at 2× the final concentration (final cell concentration is 1×10^6 cells/mL). Plates were incubated for 16-24 hours at 37° C., 5% CO2. After incubation, plates were centrifuged at 1000 RPM for 10 minutes at 25° C. Supernatants were transferred to a 0.75 mL sterile polypropylene Matrix box (Matrix, Hudson, N.Y.) and stored at −20° C. for future cytokine analysis.
IL-12 analysis was performed using IGEN analysis. More than two hours prior to performing the analysis, a 1:20 dilution of M-280 Streptavidin Dynabeads was prepared in IGEN buffer. Also, a 1 μg/mL solution of biotinylated IL-12 antibody (Cat. No. AHC7129, Biosource International, Camarillo, Calif.) in IGEN buffer was prepared. The 1:20 Dynabeads solution and the biotinylated antibody solution were mixed together and incubated 30 minutes at room temperature, then stored at 4° C. until the analysis was performed.
To perform the analysis, 50 μL of the Dynabeads/biotinylated antibody solution was added to each well of a 96-well plate. […] 25 μL of sample was added to each well, each sample containing either a standard dilution or an experimental sample.
The 96-well plate was tapped to mix the contents of each well, covered with plate sealer, and incubated at room temperature for 2.5 hours. Following the incubation, 100 μL of IGEN PBS Buffer was added to each well for a total assay volume of 200 μL and read on the IGEN M-8 Analyzer (IGEN International, Inc., Gaithersburg, Md.) using the hIL-12 protocol.

[1] = tested on: plasmacytoid dendritic cells (pDCs); test: Activation of plasmacytoid dendritic cells (CD80/HLA-DR staining, flow cytometry); settings: two donors; 1 μM IRM or 3 μM CpG2216, 16-24 hours; HLA-DR positive with increased CD80; FIG. 2
Method: The cells were resuspended in 500 μL of separation buffer per 10^8 total cells. […] The cells retained in the column were eluted into a sterile 50 mL polystyrene conical tube.
as §2

[2] = tested on: myeloid dendritic cells (mDCs); test: Activation of blood myeloid dendritic cells (CD80/HLA-DR staining, flow cytometry); settings: two donors; 1 μM IRM or 3 μM CpG2216, 16-24 hours; HLA-DR positive with increased CD80; FIG. 1
Method: as §1, §2

SMILES	IL-12 (Myeloid DCs; donor3, 3.0 μM IRM)	activation of plasmacytoid dendritic cells (pDCs) in vitro [1]	activation of myeloid dendritic cells (mDCs) in vitro [2]	IL-12 (Myeloid DCs; donor4, 3.0 μM IRM)
CCCc1nc2c(N)nc3ccccc3c2s1 [IRM9, 2-propylthiazolo[4,5-c]quinolin-4-amine]	693 pg/mL	–	–	–
CCc1nc2c(N)nc3ccccc3c2n1CCCCNS(C)(=O)=O [IRM36, N-[4-(4-amino-2-ethyl-1H-imidazo[4,5-c]quinolin-1-yl)butyl]methanesulfonamide]	57 pg/mL	activated	not activated	77 pg/mL
CCOCc1nc2c(N)nc3ccccc3c2n1CCCNC(=S)Nc1cccc(C#N)c1 [IRM37, N-{3-[4-amino-2-(ethoxymethyl)-1H-imidazo[4,5-c]quinolin-1-yl]propyl}-N′-(3-cyanophenyl)thiourea]	296 pg/mL	–	–	491 pg/mL
Cc1nc2c(N)nc3ccccc3c2n1CCCCNC(=O)N1CCCCC1 [IRM38, N-[4-(4-amino-2-methyl-1H-imidazo[4,5-c]quinolin-1-yl)butyl]piperidine-1-carboxamide]	17 pg/mL	–	–	20 pg/mL
CCc1nc2c(N)nc3ccccc3c2n1CC(C)(C)NC(=O)Nc1ccccc1 [IRM39, N-[2-(4-amino-2-ethyl-1H-imidazo[4,5-c]quinolin-1-yl)-1,1-dimethylethyl]-N′-phenylurea]	280 pg/mL	–	–	400 pg/mL
CCOCc1nc2c(N)nc3ccccc3c2n1CC(C)(C)O [IRM40, 4-amino-α,α-dimethyl-2-ethoxymethyl-1H-imidazo[4,5-c]quinolin-1-ethanol]	517 pg/mL	–	–	765 pg/mL
CC(C)Cn1cnc2c(N)nc3ccccc3c21 [IRM41, 1-(2-methylpropyl)-1H-imidazo[4,5-c]quinolin-4-amine]	17 pg/mL	–	–	39 pg/mL
